According to EP0514935B1, “Novel benzopyran derivatives and processes for the preparation thereof” (KOREA RESEARCH INSTITUTE OF CHEMICAL TECHNOLOGY, priority 1991, dated 1992):
Like-named read-outs stand apart in the source and are kept apart here.

Legend:
[1] = tested on: spontaneously hypertensive rats; assay: Blood pressure-lowering activity, tail-cuff method; type: in vivo; settings: maximum lowering effect on systolic blood pressure
Method: The activity of the formula(I) compounds of the present invention was tested by employing the tail-cuff method described in references [see, e.g., I. M. Claxton, M. G. Palfreyman, R. H. Poyster and R. L. Whiting, European Journal of Pharmacology 37, 179(1976)] . After administration of the test compound of formula(I) to sets of spontaneously hypertensive rats, maximum blood pressure-lowering activity was determined by measuring the lowering effect on systolic blood pressure.

[2] = tested on: Guinea pig trachea muscle; assay: Relaxation activity on respiratory smooth muscle contracted with histamine; type: cell-based; settings: Cavia porcellus, concentration relaxing 50% of the contraction, read-out: Trachea Relaxation Activity, EC₅₀
Method: Further, the relaxation activity on respiratory smooth muscle was determined as follows: Guinea pig trachea muscle was made to be contracted with histamine; and then the test compound of the present invention was administered thereto; and the concentration of the test compound which was required in relaxing 50% level of the contraction was determined and designated as EC₅₀.

[3] = Toxicity test, oral administration, deaths over 48 hours; settings: rat, in vivo, rats, orally administered; for mortality at 48 h: deaths over 48 hours, read-out: Lethal Rate(%); for LD50 at 48 h: amount of test compound which causes a 50% lethal rate, read-out: LD₅₀
Method: Six pairs(each pair consisting of a male and a female) of the rats were used in the test. The number of the rats which died over a period of 48 hours was reported.

SMILES | Blood Pressure-Lowering Activity ([1]; Dose 0.1 mg/kg) [%] | EC50 [2] [µM] | Blood Pressure-Lowering Activity ([1]; Dose 0.3 mg/kg) [%] | mortality at 48 h ([3]; Dose 10 mg/kg) [%] | mortality at 48 h ([3]; Dose 20 mg/kg) [%] | mortality at 48 h ([3]; Dose 50 mg/kg) [%] | LD50 at 48 h [3] [mg/kg] | Blood Pressure-Lowering Activity ([1]; Dose 1.0 mg/kg) [%]
CC1(C2OCCO2)C=C(N2CCCC2=O)c2cc(OC(F)(F)F)ccc2O1 (racemic) [Example 9, 2-(2'' -(1'' ,3'' -dioxolane))-2-methyl-4-(2' -oxo-1' -pyrrolidinyl)-6-trifluoromethoxy-2H-1-benzopyran] | 20.6 | 17.1 | – | – | – | – | – | –
CC1(C)Oc2ccc(C#N)cc2C(N2CCCC2=O)C1O (stereo not drawn) [Cromakalim(-), Cromakalim, reference compound] | – | 2.7 | 39 | – | – | – | – | –
CC1(C2OCCCO2)C=C(N2CCCC2=O)c2cc([N+](=O)[O-])ccc2O1 (racemic) [Example 11, 2-(2'' -(1'' ,3'' -dioxane))-2-methyl-4-(2' -oxo-1' -pyrrolidinyl)-6-nitro-2H-1-benzopyran] | 48 | 50 | – | 0 | 35 | 35 | > 50 | –
COC(OC)C1(C)C=C(N2CCCC2=O)c2cc(C#N)ccc2O1 (racemic) [Example 1, 2-dimethoxymethyl-2-methyl-4-(2' -oxo-1' -pyrrolidinyl)-6-cyano-2H-1-benzopyran] | – | 150 | 24 | 0 | 8 | 25 | > 50 | 43
CC1(C2OCCO2)C=C(N2CCCC2=O)c2cc(C#N)ccc2O1 (racemic) [Example 7, 2-(2'' -(1'' ,3'' -dioxolane))-2-methyl-4-(2' -oxo-1' -pyrrolidinyl)-6-cyano-2H-1-benzopyran] | – | 50 | – | – | – | – | – | 41
COC(OC)C1(C)C=C(N2CCCC2=O)c2cc(S(=O)(=O)c3ccccc3)ccc2O1 (racemic) [Example 3, 2-dimethoxymethyl-2-methyl-4-(2' -oxo-1' -pyrrolidinyl)-6-phenylsulfonyl-2H-1-benzopyran] | 6.9 | 10.9 | – | – | – | – | – | –
COC(OC)C1(C)C=C(N2CCCC2=O)c2cc(C#N)ccc2O1 (single isomer, unassigned) [16(-), 2-dimethoxymethyl-2-methyl-4-(2' -oxo-1' -pyrrolidinyl)-6-cyano-2H-1-benzopyran] | – | 140 | 28 | – | – | – | – | 55
